Assay results taken from patent US9102635B2, “Substituted bisphenyl butanoic acid derivatives as NEP inhibitors with improved in vivo efficacy” (NOVARTIS AG, priority 2013, dated 2015).

Key:
[1] = molecular target: T1, recombinant human neutral endopeptidase (Homo sapiens, UniProt P08473); experiment: in vitro inhibition of recombinant human neutral endopeptidase (fluorescence lifetime assay); type: biochemical; details: 1 hour pre-incubation, 1 hour reaction, room temperature, pH 7.4; read-out: Human NEP IC50
T1 construct: made in house; host or cells: insect cells
Source text: The activity of a compound according to the present invention can be assessed by the following in vitro and in vivo methods and/or by the following in vitro and in vivo methods well-described in the art. See Doering K, Meder G, Hinnenberger M, Woelcke J, Mayr L M, Hassiepen U, (2009) “A fluorescence lifetime-based assay for protease inhibitor profiling on human kallikrein 7”, Biomol Screen, January; 14(1):1-9.
In particular, the in vitro inhibition of recombinant human neutral endopeptidase can be determined as follows:
Recombinant human neutral endopeptidase (expressed in insect cells and purified using standard methods, final concentration 7 pM) is pre-incubated with test compounds at various concentrations for 1 hour at room temperature in 10 mM sodium phosphate buffer at pH 7.4, containing 150 mM NaCl and 0.05% (w/v) CHAPS. The enzymatic reaction is started by the addition of a synthetic peptide substrate Cys(PT14)-Arg-Arg-Leu-Trp-OH to a final concentration of 0.7 μM. Substrate hydrolysis leads to an increase in fluorescence lifetime (FLT) of PT14 measured by means of a FLT reader as described by Doering et al. (2009) as referenced supra. The effect of the compound on the enzymatic activity was determined after 1 hour (t=60 min) incubation at room temperature. […]

[2] = molecular target: T2, peripheral NEP (Rattus norvegicus, UniProt P07861); experiment: ANP potentiation model in conscious rats (plasma ANP after oral dose); type: in vivo, Wistar Han (WH) rats; details: for PANP % of baseline: 0- to 8-hr time-weighted average of plasma ANP, ANP infusion 450 ng/kg/min i.v.
T2 construct: from tissue; host or cells: whole animal: adult male Wistar Han rats (Charles River Labs), peripheral tissues
T2 sequence (P07861 1-750): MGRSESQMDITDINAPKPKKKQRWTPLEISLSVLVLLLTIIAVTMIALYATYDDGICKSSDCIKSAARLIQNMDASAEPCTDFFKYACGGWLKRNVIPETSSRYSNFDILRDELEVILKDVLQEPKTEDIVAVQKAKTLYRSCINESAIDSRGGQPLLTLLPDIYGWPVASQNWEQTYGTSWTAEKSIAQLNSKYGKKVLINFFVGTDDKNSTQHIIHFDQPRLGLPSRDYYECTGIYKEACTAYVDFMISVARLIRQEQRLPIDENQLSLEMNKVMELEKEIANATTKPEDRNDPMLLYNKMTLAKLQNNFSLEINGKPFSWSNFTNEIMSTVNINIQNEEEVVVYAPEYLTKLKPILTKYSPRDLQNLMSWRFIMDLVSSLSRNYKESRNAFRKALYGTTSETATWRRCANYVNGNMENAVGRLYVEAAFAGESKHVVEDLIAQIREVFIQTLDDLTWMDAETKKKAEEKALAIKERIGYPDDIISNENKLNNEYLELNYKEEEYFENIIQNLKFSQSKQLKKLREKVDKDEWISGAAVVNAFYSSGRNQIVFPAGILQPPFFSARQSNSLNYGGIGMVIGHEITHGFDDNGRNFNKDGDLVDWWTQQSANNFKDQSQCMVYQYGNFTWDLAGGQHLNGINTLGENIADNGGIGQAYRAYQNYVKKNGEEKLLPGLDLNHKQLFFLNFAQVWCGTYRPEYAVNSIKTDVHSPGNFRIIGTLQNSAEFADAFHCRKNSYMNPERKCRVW
Protocol: In particular, the in vivo inhibition of recombinant human neutral endopeptidase can be determined as follows:
Thus, the potentiation of plasma ANP was used as an index of the extent and duration of inhibition of peripheral NEP by the orally administered compounds.
They were housed on a 12-hr light/dark cycle (light: 6 am to 6 pm) at temperature and relative humidity set points of 72° F. and 55%, respectively. […] In this case, the evening before the experiment (˜5 pm) all but two of the rat's chow pellets were removed. On the morning of the experiment, any remaining food was removed. […] Food was returned at the experiment terminus.
Rats were surgically instrumented with catheters to allow collection of arterial blood samples and intravenous (i.v.) administration of ANP. Rats were anesthetized and maintained in a surgical plane of anesthesia with isoflurane (2% in 100% oxygen). Ophthalmic lubricant was applied to each eye to prevent corneal irritation. Meloxicam (0.2 mg/kg s.c.) was administered for analgesia. If necessary for pain management, a second injection of meloxicam was administered on the first post-operative day. Also, a dose of penicillin G (50,000 U/kg i.m.) was administered pre-operatively to prevent infection.
Under aseptic surgical conditions, a femoral artery and vein were isolated and catheters inserted. Catheters consisted of a ˜55-cm length of Tygon (PVC) Microbore tubing (0.020″, 0.060″ O.D.) bonded with cyclohexanone to a 4.5-cm length of polyurethane (0.012″ I.D., 0.025″ O.D., Micro-Renathane type MRE-025, Braintree Scientific, Inc., Braintree, Mass.) tubing. The catheters were tunneled subcutaneously and exteriorized in the mid-dorsal thoracic/abdominal region. Catheters exited through a subcutaneously anchored tether/swivel system which allowed the animal to move unrestrained in a specialized Plexiglas cage with perforated solid flooring. Catheters were flushed with sterile 0.9% saline and locked with 200 U/mL heparin in sterile 0.9% saline after the surgery was completed.
The rats were allowed to recover for at least one week before being studied while conscious and unrestrained. Rats were infused intravenously (450 ng/kg/min) with rat ANP (ANP (1-28), Product #14-5-41, American Peptide Company, Inc., Sunnyvale, Calif.). After 1 hr of ANP infusion, rats were treated by oral gavage with 1 mL/kg of vehicle (0.5% methylcellulose+0.1% Tween 80) or a selected dose of NEP inhibitor. ANP infusion was continued for an additional 8 hr. Arterial blood samples (0.20 mL) were withdrawn from the femoral arterial cannulas at various times (baseline or time 0, 0.25, 0.5, 1, 2, 4, 6, and 8 hr) into a collection tube containing 0.004 mL EDTA/protease inhibitor (PI) cocktail. Blood samples were centrifuged at 4° C. and 20K g to separate plasma. Plasma samples were aliquoted and frozen (−70° C.) for later analysis of plasma ANP (PANP) levels. The O— to 8-hr time-weighted averages of the PANP concentrations expressed as a percent of the baseline (time 0) PANP values were used to generate dose-response relationships.
The blood collection cocktail consisted of broad-spectrum serine and cysteine PIs and EDTA. […] It also anticoagulated the blood.
The frozen plasma sample was thawed on ice and 10 μL of plasma was diluted 1:10 in 1× assay buffer supplied with the kit. Ten μL of the diluted sample was then assayed. The manufacturer's instructions were followed for the assay protocol (total volume per well was expanded to 50 μl with 1× assay buffer). Absorbance was read (Molecular Devices SpectraMax Paradigm Multi-Mode Detection Platform) at 450 nm within ten minutes of the assay termination.

T1 sequence (P08473 whole entry): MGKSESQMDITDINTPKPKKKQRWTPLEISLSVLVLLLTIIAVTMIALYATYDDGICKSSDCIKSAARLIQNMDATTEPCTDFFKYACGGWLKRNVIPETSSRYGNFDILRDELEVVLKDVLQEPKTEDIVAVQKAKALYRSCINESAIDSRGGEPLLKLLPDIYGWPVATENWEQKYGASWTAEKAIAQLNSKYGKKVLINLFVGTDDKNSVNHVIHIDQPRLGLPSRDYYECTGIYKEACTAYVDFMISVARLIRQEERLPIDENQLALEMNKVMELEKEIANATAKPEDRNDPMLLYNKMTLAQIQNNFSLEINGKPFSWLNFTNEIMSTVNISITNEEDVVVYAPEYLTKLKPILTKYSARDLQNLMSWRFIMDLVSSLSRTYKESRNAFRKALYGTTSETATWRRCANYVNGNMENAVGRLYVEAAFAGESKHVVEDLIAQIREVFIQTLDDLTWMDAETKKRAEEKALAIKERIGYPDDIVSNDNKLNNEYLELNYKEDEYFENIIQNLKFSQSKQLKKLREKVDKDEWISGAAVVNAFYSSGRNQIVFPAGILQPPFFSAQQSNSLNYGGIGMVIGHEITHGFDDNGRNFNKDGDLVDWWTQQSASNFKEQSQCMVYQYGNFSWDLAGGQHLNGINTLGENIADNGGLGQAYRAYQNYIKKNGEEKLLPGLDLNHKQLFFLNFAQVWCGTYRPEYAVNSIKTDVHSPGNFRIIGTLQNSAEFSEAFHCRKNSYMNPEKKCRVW

| IC50 [1] [nM] | in vivo efficacy compared to Example 5-46 of WO2010/136493 ([2]; ANP potentiation model, oral) | PANP % of baseline ([2]; dose 1 mg/kg oral gavage) | PANP % of baseline ([2]; dose 3 mg/kg oral gavage) | PANP % of baseline ([2]; dose 10 mg/kg oral gavage) | PANP % of baseline ([2]; dose 30 mg/kg oral gavage) | PANP % of baseline ([2]; dose 100 mg/kg oral gavage) | SMILES |
| --- | --- | --- | --- | --- | --- | --- | --- |
| 0.06 | superior efficacy | 141 % of baseline | 183 % of baseline | 238 % of baseline |  |  | COc1ccc(F)cc1-c1ccc(C[C@H](CC(=O)O)NC(=O)c2n[nH]c(=O)o2)cc1 [Example 1, (R)-4-(5′-fluoro-2′-methoxy-[1,1-biphenyl]-4-yl)-3-(5-oxo-4,5-dihydro-1,3,4-oxadiazole-2-carboxamido)butanoic acid] |
|  |  |  | 137 % of baseline | 126 % of baseline | 185 % of baseline | 254 % of baseline | O=C(O)C[C@@H](Cc1ccc(-c2cccc(Cl)c2)cc1)NC(=O)c1n[nH]c(=O)o1 [Example 5-46 of WO2010/136493, reference compound] |
